The supplement of paper PMC4862054
“And” between values parts separate entries of the source, which are not always exact repeats. Identical values can stand only once.

Key:
Settings in all cases: incubation time: 72 h
CAL-51 = experiment: normalised viability (% of control), CellTiter-Blue; higher = more viable cells (about 100 = DMSO control)
Description: (§1)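 DSRT, CellTiter-Blue viability, 72 h incubation. Signal is normalised to DMSO and benzethonium chloride controls. Value is the normalised response at dose 7.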

DU-4475 = experiment: as above
Description: as §1

CAL-85-1 = experiment: as above
Description: as §1

MDA-MB-453 = experiment: as above
Description: as §1

CAL-148 [1] = experiment: as above
Description: as §1

HDQ-P1 = experiment: as above
Description: as §1

MDA-MB-231 = experiment: normalised response (% of control), CellTiter-Glo; higher = more viable cells (100 = DMSO, 0 = benzethonium chloride kill control)
Summary of the method: (§2)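 For each plate, 0.1 % DMSO was set to 100 and a positive kill control to 0. Breast cancer cell lines (20 µl suspension) were seeded into 384-well plates already holding compound at 5 concentrations in 10-fold steps over a 10,000-fold range chosen per compound, and incubated for 72 h. CellTox Green fluorescence at 485/520 nm was read before CellTiter-Glo luminescence, which followed 10 min at room temperature. Each value is the normalised signal at one concentration.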

Hs578T = experiment: as above
Summary of the method: as §2

HCC1599 = experiment: as above
Summary of the method: as §2

CAL-120 = experiment: as above
Summary of the method: as §2

CAL-148 [2] = experiment: as above
Summary of the method: as §2

MCF-10A = experiment: as above
Summary of the method: as §2

BT-549 = experiment: as above
Summary of the method: as §2

Compound	normalised viability (CAL-51)	normalised viability (DU-4475)	normalised viability (CAL-85-1)	normalised viability (MDA-MB-453)	normalised viability (CAL-148 [1])	normalised viability (HDQ-P1)	normalised response (MDA-MB-231) [%]	normalised response (Hs578T) [%]	normalised response (HCC1599) [%]	normalised response (CAL-120) [%]	normalised response (CAL-148 [2]) [%]	normalised response (MCF-10A) [%]	normalised response (BT-549) [%]
Nc1ccn([C@@H]2O[C@H](CO)[C@@H](O)C2(F)F)c(=O)n1 [Gemcitabine] (100 nM)	16.3%	45.1%	49.8%	48.3%	33.7%	92.3%	85	70	39	78.8	56	66.7	49.7
CC(C)C[C@H](NC(=O)[C@@H](COC(C)(C)C)NC(=O)[C@H](Cc1ccc(O)cc1)NC(=O)[C@H](CO)NC(=O)[C@H](Cc1c[nH]c2ccccc12)NC(=O)[C@H](Cc1cnc[nH]1)NC(=O)[C@@H]1CCC(=O)N1)C(=O)N[C@@H](CCCNC(=N)N)C(=O)N1CCC[C@H]1C(=O)NNC(N)=O [Goserelin] (1000 nM)	108%	102%	93.2%	96%	97.1%	96.9%	100	99.4	106	106	93.1	96.5	98.6
CC(=O)[C@]1(O)Cc2c(O)c3c(c(O)c2[C@@H](O[C@H]2C[C@H](N)[C@H](O)[C@H](C)O2)C1)C(=O)c1ccccc1C3=O [Idarubicin] (100 nM)	28%	27.7%	75.7%	79.4%	11.3%	78.3%	94.7	82.5	123	99.7	63.5	98.2	62.6
C/C(=C\c1csc(C)n1)[C@@H]1C[C@@H]2O[C@]2(C)CCC[C@H](C)[C@H](O)[C@@H](C)C(=O)C(C)(C)[C@@H](O)CC(=O)N1 [Ixabepilone] (100 nM)	108%	93.7%	80.5%	78.5%	86.5%	78.1%	96.9	104	103	95.8	97.8	110	23.6
C=CCn1c(=O)c2cnc(Nc3ccc(N4CCN(C)CC4)cc3)nc2n1-c1cccc(C(C)(C)O)n1 [MK1775] (1000 nM)	16.6%	32.2%	40.5%	23.2%	9.04%	47.8%	23.6	30	7.3	47.3	12.2	47.6	21.2
CO[C@@H]1[C@H](N(C)C(=O)c2ccccc2)C[C@H]2O[C@]1(C)n1c3ccccc3c3c4c(c5c6ccccc6n2c5c31)C(=O)NC4 [Midostaurin] (1000 nM)	14.5%	8.53%	81.1%	67.9%	82.2%	52.8%	50.3	26.1	94.5	54	80.5	27.8	32.6
CO[C@@]12[C@H](COC(N)=O)C3=C(C(=O)C(C)=C(N)C3=O)N1C[C@@H]1N[C@@H]12 [Mitomycin C] (1000 nM)	108%	95.6%	77.2%	91.4%	96.3%	88.9%	97.4	102	84.2	94.1	90.9	93	65.7
CCNC(=O)c1noc(-c2cc(C(C)C)c(O)cc2O)c1-c1ccc(CN2CCOCC2)cc1 [NVP-AUY922] (100 nM)	10.1%	0.71%	28.6%	8.47%	15.9%	31.8%	24.6	39.1	71	47.5	27.6	15.2	41.1
CC1(C)CCC(c2ccc(Cl)cc2)=C(CN2CCN(c3ccc(C(=O)NS(=O)(=O)c4ccc(N[C@H](CCN5CCOCC5)CSc5ccccc5)c(S(=O)(=O)C(F)(F)F)c4)cc3)CC2)C1 [Navitoclax] (1000 nM)	97.6%	40.2%	81.2%	75.5%	80.1%	68.2%	49.2	93.1	97.3	67.8	78.5	97.8	92.5
Cc1cn(-c2cc(NC(=O)c3ccc(C)c(Nc4nccc(-c5cccnc5)n4)c3)cc(C(F)(F)F)c2)cn1 [Nilotinib] (1000 nM)	107% and 117%	113% and 98.9%	84.7% and 89.2%	88.3% and 97.5%	93.5% and 93.9%	91.7% and 81.1%	96.5	105	105	100	84.4	107	109
O=C(CCCCCCC(=O)Nc1ccccc1)NO [Vorinostat] (1000 nM)	107% and 99.4%	103% and 97.4%	84% and 86.3%	51.6% and 54.1%	83.7% and 89.3%	80.8% and 62.8%	85.4	95.8	98.9	85.9	90.6	104	100
